Results published in patent publication US7691854B2, “Dihydropyridine derivatives for use as human neutrophil elastase inhibitors” (Bayer Schering Pharma Aktiengesellschaft, priority 2002, dated 2010).

Columns and labels:
[1] = target: T1, human neutrophil elastase (HNE) (Homo sapiens, UniProt P08246); experiment: In vitro inhibition of HNE using a fluorogenic peptide substrate (MeOSuc-Ala-Ala-Pro-Val-AMC); format: biochemical; settings: 384 MTP format
T1 construct: purchased SERVA Electrophoresis GmbH, Heidelberg, Germany #20927.01
T1 sequence (P08246 30-267): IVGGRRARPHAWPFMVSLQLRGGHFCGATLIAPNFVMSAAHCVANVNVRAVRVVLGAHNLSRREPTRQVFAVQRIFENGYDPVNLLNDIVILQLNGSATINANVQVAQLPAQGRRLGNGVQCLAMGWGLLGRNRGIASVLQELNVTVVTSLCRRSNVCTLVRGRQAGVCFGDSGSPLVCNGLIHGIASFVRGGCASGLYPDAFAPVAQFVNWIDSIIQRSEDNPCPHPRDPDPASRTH
Method: I. In Vitro Enzyme Assays of Human Neutrophil Elastase (HNE)
• assay buffer: 0.1 M HEPES-NaOH buffer pH 7.4, 0.5 M NaCl, 0.1% (w/v) bovine serum albumin; • suitable concentration (see below) of HNE (18 U/mg lyophil., #20927.01, SERVA Electrophoresis GmbH, Heidelberg, Germany) in assay buffer; • suitable concentration (see below) of substrate in assay buffer; • suitable concentration of test compounds diluted with assay buffer from a 10 mM stock solution in DMSO.
In Vitro Inhibition of HNE Using a Fluorogenic Peptide Substrate (Continuous Read-Out Signal, 384 MTP Assay Format):
In this protocol, the elastase substrate MeOSuc-Ala-Ala-Pro-Val-AMC (#324740, Calbiochem-Novabiochem Corporation, Merck KGaA, Darmstadt, Germany) is used. The test solution is prepared by mixing 10 μl of test compound dilution, 20 μl of HNE enzyme dilution (final concentration 8-0.4 μU/ml, routinely 2.1 μU/ml) and 20 μl of substrate dilution (final concentration 1 mM-1 μM, routinely 20 μM), respectively. The solution is incubated for 0-2 hrs at 37° C. (routinely one hour). The fluorescence of the liberated AMC due to the enzymatic reaction is measured at 37° C. (TECAN spectra fluor plus plate reader). The rate of increase of the fluorescence (ex. 395 nm, em. 460 nm) is proportional to elastase activity. IC50 values are determined by RFU-versus-[I] plots. Km and Km(app.) values are determined by Lineweaver-Burk plots and converted to Ki values by Dixon plots.

[2] = test system: human polymorphonuclear cells (PMNs); experiment: In vitro PMN elastolysis assay (tritiated elastin); format: cell-based
Method: In Vitro PMN Elastolysis Assay:
This assay is used to determine the elastolytic potential of human polymorphonuclear cells (PMNs) and assess the proportion of degradation due to, neutrophil elastase [cf. Z. W. She et al., Am. J. Respir. Cell. Mol. Biol. 9, 386-392 (1993)].
Tritiated elastin, in suspension, is coated on to a 96 well plate at 10 μg per well. Test and reference [ZD-0892 (J. Med. Chem. 40, 1876-1885, 3173-3181 (1997), WO 95/21855) and α1 protease inhibitor (α1PI)] compounds are added to the wells at the appropriate concentrations. Human PMNs are separated from peripheral venous blood of healthy donors and resuspended in culture media. The neutrophils are added to the coated wells at concentrations ranging between 1×10^6 to 1×10^5 cells per well. Porcine pancreatic elastase (1.3 μM) is used as a positive control for the assay, and α1PI (1.2 μM) is used as the positive inhibitor of neutrophil elastase. The cellular control is PMNs without compound at each appropriate cell density. The cells plus compounds are incubated in a humidified incubator at 37° C. for 4 hours. The plates are centrifuged to allow the harvest of cell supernatant only. The supernatant is transferred in 75 μl volumes to corresponding wells of a 96 well Lumaplate™ (solid scintillant containing plates). The plates are dried until no liquid is visible in the wells and read in a beta counter for 3 minutes per well. […]

Compound	IC50 [1]	further results
CCOC(=O)C1=C(C)N(c2cccc(C(F)(F)F)c2)C(N(C)C)=C(C(=O)OCC)C1c1ccc(C#N)cc1 (stereo not shown) [Example 47, Diethyl 4-(4-cyanophenyl)-2-(dimethylamino)-6-methyl-1-[3-(trifluoromethyl)-phenyl]-1,4-dihydro-3,5-pyridinedicarboxylate]	500 nM	–
α1PI: α1 protease inhibitor, reference and positive inhibitor of neutrophil elastase	–	inhibition of elastolysis of 3H-elastin (mean±s.e.m.) ([2]; at 1.2 μM, n=3 different donors at 3.6×10^5 cells per well): 83.46±3.97%
COc1ccc(C(=O)N[C@H](C(=O)N2CCC[C@H]2C(=O)N[C@H](C(=O)C(F)(F)F)C(C)C)C(C)C)cc1 [ZD-0892]	–	IC50 ([2]; n=2 different donors at 3.6×10^5 cells per well, read-out: IC50 (mean±s.e.m.)): 45.5 ± 7.75 nM
CC(=O)C1=C(N)N(c2cccc(C(F)(F)F)c2)C(C)=C(C#N)C1c1ccc(C#N)cc1 (stereo not shown) [Example 12, 5-Acetyl-6-amino-4-(4-cyanophenyl)-2-methyl-1-[3-(trifluoromethyl)phenyl]-1,4-dihydro-3-pyridinecarbonitrile]	90 nM	–
CCOC(=O)C1=C(C)N(c2cccc(C(F)(F)F)c2)C(N)=C(C(=O)OCC)C1c1ccc(Br)nc1 (stereo not shown) [Example 43]	800 nM	–
CCNC(=O)NC1=C(C(=O)OCC)C(c2ccc(C#N)cc2)C(C(=O)OCC)=C(C)N1c1cccc(C(F)(F)F)c1 (stereo not shown) [Example 44, Diethyl 4-(4-cyanophenyl)-2-{[(ethylamino)carbonyl]amino}-6-methyl-1-[3-(trifluoromethyl)phenyl]-1,4-dihydro-3,5-pyridinedicarboxylate]	130 nM	–

Further lines, with some results ahead:

IC50 [1]	Compound	further results
40 nM	CCOC(=O)C1=C(N)N(c2cccc(C(F)(F)F)c2)C(COC)=C(C(=O)OC)C1c1ccc(C#N)cc1 (stereo not shown) [Example 25]	–
27 nM	CC1=C(C#N)C(c2ccc(C#N)cc2)C(C(N)=O)=C(N)N1c1cccc(C(F)(F)F)c1 (stereo not shown) [Example 4, 2-Amino-5-cyano-4-(4-cyanophenyl)-6-methyl-1-[3-(trifluoromethyl)phenyl]-1,4-dihydro-3-pyridinecarboxamide]	–
30 nM	CCOC(=O)C1=C(C)N(c2cccc(C(F)(F)F)c2)C(N)=C(C(=O)OCC)C1c1ccc(C#N)cc1 (stereo not shown) [Example 2, Diethyl 2-amino-4-(4-cyanophenyl)-6-methyl-1-[3-(trifluoromethyl)phenyl]-1,4-dihydro-3,5-pyridine-dicarboxylate]	–
10 nM	CCOC(=O)C1=C(C)N(c2cccc(C(F)(F)F)c2)C(N)=C(C2=NC(C)(C)CO2)C1c1ccc(C#N)cc1 (stereo not shown) [Example 50, Ethyl 6-amino-4-(4-cyanophenyl)-5-(4,4-dimethyl-4,5-dihydro-1,3-oxazol-2-yl)-2-methyl-1-[3-(trifluoromethyl)phenyl]-1,4-dihydro-3-pyridinecarboxylate]	–
